Laboratory results from patent US9567318B2, “Substituted pyrimidine compounds and uses thereof” (Memorial Sloan-Kettering Cancer Center, priority 2009, dated 2017).
Entries after “also recorded” stand apart in the source; their conditions may differ.

How the values were obtained:
Assay type in all cases: cell-based, human
[1] = test system: Kasumi-1 acute myeloid leukemia cells; assay: Growth Inhibition Assay (Alamar blue), Kasumi-1; settings: Homo sapiens, Kasumi 1, 72 h, Kasumi-1 cells
Summary of the method: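 Adherent SKBr3 cells seeded at 8,000/well and suspension Kasumi-1 cells at 20,000/well, rested 24 h at 37 °C, then treated in triplicate for 72 h. Viability read by Alamar blue (440 µM) fluorescence (ex 530/em 580 nm) after 6 h; growth inhibition calculated versus untreated controls, corrected for the time-zero cell population.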

[2] = test system: SKBr3 HER2+ breast cancer cells; assay: Growth Inhibition Assay (Alamar blue), SKBr3; settings: Homo sapiens, SK-BR-3, 72 h
Experimental: The IC50 values listed for some of these compounds illustrate the antiproliferative effects of the subject compounds and were obtained using the Growth Inhibition assays described herein.
Growth Inhibition Assay. Antiproliferative effects of inhibitors were evaluated using the dye Alamar blue. This reagent offers a rapid objective measure of cell viability in cell culture, and it uses the indicator dye resazurin to measure the metabolic capacity of cells, an indicator of cell viability. Briefly, cells were plated on Costar 96-well plates. For attached cells (such as SKBr3, MDA-MB-468, LNCaP, MRCS), 8,000 cells/well were used. For suspension cells (such as MOLM-13, Kasumi-1, OCI-Ly7, PBL), 20,000 cells/well were plated. Cells were allowed to incubate for 24 h at 37° C. before drug treatment. Drugs were added in triplicates at the indicated concentrations, and the plate was incubated for 72 h. Alamar Blue (440 μM) was added, and the plate read 6 h later using the Analyst GT (Fluorescence intensity mode, excitation 530 nm, emission 580 nm, with 560=dichroic mirror). Results were analyzed using the Softmax Pro software. The percentage cell growth inhibition was calculated by comparing fluorescence readings obtained from treated versus control cells, accounting for initial cell population (time zero).

[3] = test system: HER2, Raf-1, Akt, Hsp70 in SKBr3 cells; assay: Western blotting of Hsp90 onco-client proteins and Hsp70 in SKBr3 cells; settings: SKBr3 cells, 24 h
Experimental: FIG. 3. Testing strategy for the discovery of YK5. a, b) SKBr3 cells were treated for 24 h with the indicated concentrations of inhibitors and cells were lysed for western blot (WB) analysis. β-actin was used as loading control. The data are consistent with those obtained from multiple repeat experiments (n≧3). c) The ability of the indicated inhibitors to compete with GM-Cy3B for Hsp90 binding in SKBr3 cell extracts was examined by fluorescence polarization. Values recorded in wells with added inhibitor were normalized to values read in control wells and plotted against the concentration of tested inhibitor. Drugs were assayed in triplicate. All compounds were used as DMSO stocks. Points, mean; bars, s.d. d) Growth inhibition: SKBr3 cells were incubated in triplicate with increasing concentrations of compound and growth over 72 h was assessed. Y-axis values below 0% represent cell death of the starting population. HER2 degradation was analyzed as in panel a), and gels were quantified by densitometry. Recorded values were normalized to control (vehicle only treated cells) and data graphed against YK5 concentration. Error bars represent the s.d. of the mean (n=3).
FIG. 8. […] Points, mean; bars, s.d. Yaxis values below 0% represent cell death of the starting population. c) Streptavidin beads (50 μl) were incubated with the indicated concentrations of YK55, YK56 or D-biotin to immobilize the corresponding compounds on beads. Beads (50 μl) were probed with SKBr3 cell extracts (500 μg), and the precipitated Hsp70 analyzed by western blot and quantified by […]. Results from three independent experiments were graphed to determine the relative binding affinity of YKs. Points, mean; bars, s.d. d) Structure of representative YKs. YK55 and YK56 are the biotinylated derivatives of YK54 and YK57, respectively.
FIG. 9. […] Cells were treated for 24 h with the indicated concentrations of YK149 and YK5. Cells were lysed and proteins analyzed by western blotting. b) Examples of the compounds of the present subject matter inhibit the activity of the oncogenic STAT3 in the triple-negative breast cancer cells MDA-MB-468. Cells were treated for the indicated times with compounds or vehicle and proteins analyzed by western blot. (c) Examples of the compounds of the present subject matter dose-dependently induce apoptosis in the acute myeloid leukemia cells MOLM13. Cells were treated for 24 h with the indicated concentration of compounds and the increase in caspase3,7 activity was measured and compared to only vehicle (DMSO) treated cells. Caspase-3,7 activity was a measure of compound potency in cleaving the caspase substrate Z-DEVD-R110 and releasing rhodamine. The percentage increase in apoptotic cells was calculated by comparing the fluorescence readings obtained from compounds with those obtained from vehicle (DMSO)-treated cells.
Western Blotting. Cells were grown to 60-70% confluence and treated with inhibitor or DMSO vehicle for the indicated times. Protein lysates were prepared in 50 mM Tris pH 7.4, 150 mM NaCl and 1% NP-40 lysis buffer. Protein concentrations were measured using the BCA kit (Pierce) according to the manufacturer's instructions. […]

HSF-1 in SKBr3 cells = assay: Native gel electrophoresis, HSF-1 activation; settings: 3 h
Experimental: FIG. 6. YK5 inhibits core biochemical functions of Hsp70s and disrupts the Hsp90/Hsp70 interaction. a) Refolding of denatured luciferase by Hsc70 and DJA2 at 30° C. was measured for the indicated times in the presence of YK5 (100 μM) or vehicle (left), or at 60 min in the presence of indicated concentrations of YK5 (right). b) Hsc70 ATPase rates were measured for reactions at 30° C. with the indicated combinations of Hsc70 and co-chaperones in the presence of vehicle (DMSO) or YK5 (100 μM). ADP production was monitored by thin layer chromatography separation of radiolabeled ADP from ATP and phosphorimaging analysis (lower). The data are consistent with those obtained from multiple repeat experiments (n≧2). c,d) SKBr3 cells were treated for 24 h with vehicle or indicated concentrations of YK5 (c) or for the indicated times with YK5 (10 μM) (d). Proteins isolated with anti-Hsp90 and Hsp70s antibodies (IP: Hsp90 or Hsp70), or present in the cell extract (Lysate) were analyzed by WB. Specificity of binding was tested with a control IgG. HC=heavy chain; DJA1 and Hdj1=Hsp40 isoforms. e) Unlike Hsp90 inhibitors, YK5 fails to activate HSF-1. […] Proteins were applied to a native gel and analyzed by immunoblotting. The data are consistent with those obtained from multiple repeat experiments (n≧3). f) YK5 was tested in the scanMAX screen (Ambit) against 359 kinases. […]

Q: Which IC50 [1] does the source give for `C=CC(=O)Nc1cc(N)nc(Sc2c(OC)nc(N3CCN(C)CC3)nc2OC)n1` [YK5, N-(6-amino-2-(4,6-dimethoxy-2-(4-methylpiperazin-1-yl)pyrimidin-5-ylthio)pyrimidin-4-yl)acrylamide] here?
A: The IC50 was 0.4 to 0.6 µM.

Q: What about the IC50 [2] of the same molecule?
A: Its IC50 is 0.455 µM.

Q: And the “feed-back induction of Hsp70 (heat shock response)” value [3]?
A: The value was “undetected”.

Q: What about the “degradation of Hsp90 onco-client proteins (HER2, Raf-1, Akt)” value ([3]; western blot) of the same molecule?
A: The value was “dose-dependently reduce the steady-state levels of HER2 and Raf-1; also recorded: induced the degradation of HER2, Raf-1 and Akt kinases”.

Q: What about the HSF-1 activation (HSF-1 in SKBr3 cells) of the same molecule?
A: Its HSF-1 activation is “no effect”.
